Reference: patent US5905068A, “Retroviral protease inhibiting compounds” (Abbott Laboratories, priority 1996, dated 1999)

What was measured:
HIV-1 protease = HIV-1 protease (Human immunodeficiency virus type 1 group M subtype B, UniProt P04585); test: Fluorogenic Assay for Screening Inhibitors of HIV Protease; details: pH 4.5
HIVIIIB = test: Antiviral Activity: anti-HIV activity in MT4 cells infected with HIVIIIB (MTT); format: cell-based; details: Human immunodeficiency virus 1, 120 h, MOI 0.003, 5 days, n=four duplicate determinations
Procedure: (§1) The anti-HIV activity of the compound of the invention was determined in MF4 cells according to the following procedure: MT4 cells were infected with cell-free supernatant of HIVIIIB (previously frozen with known 50% tissue culture infectious dose (TCID50) at 0.003 multiplicity of infection (MOI)) for one hour. After one hour infection, cells were washed twice to remove residual viruses, resuspended in culture media and seeded into 96-well tissue culture plates at 1×10^4 cells per well with various half-log dilutions of compounds. Uninfected cells were included a toxicity and cell controls. RPMI 1640 media (GIBCO) with 10% fetal bovine serum was used as culture media. Various concentrations (50%, 25% and 12.5%) of human serum (SIGMA) were added to culture media resulting in final concentrations of 60%, 35% and 22.5% total serum. All assay plates were incubated in a 37° C. incubator for 5 days. The compound 3-[4,5-dimethylthiozol-2-yl]-2,5-diphenyltetrazolium bromide (MTT, SIGMA, 5 mg .mL stock in PBS) was then added to all wells at 25 μL per well and incubated for 4 hours. SDS (20%) with 0.02N HCl in water was added at 50 μL per well to lyse cells. Plates were incubated overnight for complete cell lysis and then read on a microtiter plate reader at 570/650 nm wavelengths to determine cell optical density (O.D.). Raw data was analysed for percent inhibition by the following formula: [formula]
The 50% effective concentration (EC50) was calculated by the median effect equation (Chou, 1975, Proc. Int. Cong. Pharmacol. 6th p. 619) to determine the efficacy of compound. The 50% cytotoxicity concentration (CTC50) was calculated using uninfected MT4 cells
Under these conditions, the data of Table 2 was obtained (n=four duplicate determinations).

[1] = Cytotoxicity in uninfected MT4 cells (MTT); format: cell-based; details: human, 5 days, n=four duplicate determinations, read-out: CTC50 (50% cytotoxicity concentration)
Procedure: as §1, with “RPMI 1640 media (GIBCO) with 10% fetal bovine serum was used as culture media. Various concentrations (50%, 25% and 12.5%) of human serum (SIGMA) were added to culture media resulting in final concentrations of 60%, 35% and 22.5% total serum.” left out, “The compound 3-[4,5-dimethylthiozol-2-yl]-2,5-diphenyltetrazolium bromide (MTT, SIGMA, 5 mg .mL stock in PBS) was then added to all wells at 25 μL per well and incubated for 4 hours.” left out
The 50% cytotoxicity concentration (CTC50) was calculated using uninfected MT4 cells

SMILES | inhibition at 0.0005 µM (HIV-1 protease) | EC50 (HIVIIIB) | inhibition at 0.001 µM (HIV-1 protease) | CC50 at 120 h [1]
Cc1c(O)cccc1C(=O)N[C@@H](Cc1ccccc1)[C@@H](O)C[C@H](Cc1ccccc1)NC(=O)O[C@H]1CO[C@H]2OCC[C@H]21 [Example 59, (2S,3S,5S)-2-(3-Hydroxy-2-methyl-benzoyl)amino-5-((3R,3aS,6aR)-bis-tetrahydrofuran-3-yl-oxycarbonyl)amino-1,6-diphenyl-3-hydroxyhexane] | 67% | 153 nM |  | > 100000 nM
Cc1cc2[nH]c(=O)[nH]c2c(C)c1OCC(=O)N[C@@H](Cc1ccccc1)C[C@H](O)[C@H](Cc1ccccc1)NC(=O)O[C@H]1CO[C@H]2OCC[C@H]21 [Example 25, (2S,3S,5S)-5-(4,6-Dimethyl-benzimidazolinon-5-yloxy-acetyl)amino-2-((3R,3aS,6aR)-bis-tetrahydrofuran-3-yl-oxycarbonyl)amino-1,6-diphenyl-3-hydroxyhexane] | 85% | 972 nM |  | > 100000 nM
COc1cccc(C)c1OCC(=O)N[C@@H](Cc1ccccc1)C[C@H](O)[C@H](Cc1ccccc1)NC(=O)O[C@H]1CO[C@H]2OCC[C@H]21 [Example 12, (2S,3S,5S)-5-(2-Methoxy-6-methylphenoxyacetyl)amino-2-((3R,3aS,6aR)-bis-tetrahydrofuran-3-yl-oxycarbonyl)amino-1,6-diphenyl-3-hydroxyhexane] | 74% | 353 nM |  | > 32000 nM
O=C(N[C@@H](Cc1ccccc1)[C@@H](O)C[C@H](Cc1ccccc1)NC(=O)c1ccc(O)cc1)O[C@@H]1CO[C@@H]2OCC[C@@H]21 [Example 53, (2S,3S,5S)-5-(4-Hydroxy-benzoyl)amino-2-((3S,3aR,6aS)-bis-tetrahydrofuran-3-yl-oxycarbonyl)amino-1,6-diphenyl-3-hydroxyhexane] |  | 704 nM | 56% | > 100000 nM

These reach a lower EC50 (HIVIIIB). Values come first.

inhibition at 0.0005 µM (HIV-1 protease) | EC50 (HIVIIIB) | inhibition at 0.001 µM (HIV-1 protease) | SMILES | CC50 at 120 h [1]
74% | 34 nM |  | CC(C)c1nc(CN(C)C(=O)N[C@H](C(=O)N[C@@H](Cc2ccccc2)[C@@H](O)C[C@H](Cc2ccccc2)NC(=O)O[C@H]2CO[C@H]3OCC[C@H]32)C(C)C)cs1 [Example 46, (2S,3S,5S)-2-(N-(N-((N-Methyl-N-((2-isopropyl-4-thiazolyl)methyl)amino)carbonyl)-L-valinyl)amino)-5-((3R,3aS,6aR)-bis-tetrahydrofuran-3-yl-oxycarbonyl)amino-1,6-diphenyl-3-hydroxyhexane] | 56200 nM
88% | 37 nM |  | Cc1cccc(CO)c1OCC(=O)N[C@@H](Cc1ccccc1)C[C@H](O)[C@H](Cc1ccccc1)NC(=O)O[C@H]1CO[C@H]2OCC[C@H]21 [Example 7, (2S,3S,5S)-5-(2-Hydroxymethyl-6-methyl-phenoxyacetyl)amino-2-((3R,3aS,6aR)-bis-tetrahydrofuran-3-yl-oxycarbonyl)amino-1,6-diphenyl-3-hydroxyhexane] | 82000 nM
78% | 9 nM |  | Cc1cc(N)cc(C)c1OCC(=O)N[C@@H](Cc1ccccc1)C[C@H](O)[C@H](Cc1ccccc1)NC(=O)O[C@H]1CO[C@H]2OCC[C@H]21 [Example 1, (2S,3S,5S)-5-(2,6-Dimethyl-4-amino-phenoxyacetyl)amino-2-((3R,3aS,6aR)-bis-tetrahydrofuran-3-yl-oxycarbonyl)amino-1,6-diphenyl-3-hydroxyhexane] | 95000 nM
52% | 9 nM |  | CC(C)c1nc(CN(C)C(=O)N[C@H](C(=O)N[C@@H](Cc2ccccc2)C[C@H](O)[C@H](Cc2ccccc2)NC(=O)OC2COC3OCCC23)C(C)C)cs1 (stereo partly drawn) [Example 34, (2S,3S,5S)-5-(N-(N-((N-Methyl-N-((2-isopropyl-4-thiazolyl)methyl)amino)carbonyl)-L-valinyl)amino)-2-((3R,3aS,6aR), (3S,3aR,6aS)-bis-tetrahydrofuran-3-yl-oxycarbonyl)amino-1,6-diphenyl-3-hydroxyhexane] | 56300 nM
